Assay results as given in patent US20180078525A1, “COMPOSITION FOR GROWTH PROMOTION, CONTAINING COUMARIC ACID AS ACTIVE INGREDIENT” (KOREA MEDICINE RESEARCH INSTITUTE, INC, priority 2014, published 2018).

Key:
IGF-1 = IGF-1 protein levels in blood (IGF1 ELISA Kit); format: in vivo; conditions: rat serum, after 10-day administration; control group 0.84 mg/kg
Procedure: (§1) In a control group, saline was injected. […] The drug administered to each group is as follows:
To confirm whether coumaric acid affects the secretion levels of IGF-1, […], IGF-1 protein levels were measured. In Experimental Example <1-1>, after the 10-day administration was completed, the rats of the experimental group and the control groups according to this invention were anesthetized on the day of the experiment, and then blood was extracted therefrom using a syringe and centrifuged to obtain serum. The measurement of the IGF-1 levels was carried out using an IGF1 ELISA Kit (Abcam, ab100695).

[1] = Changes in the body weight of laboratory animals; conditions: male Sprague-Dawley rats, 10-day administration; coumaric acid 100 mg/kg oral, growth hormone 20 μg/kg s.c., once daily
Procedure: Three-week-old male Sprague-Dawley rats were purchased and acclimated for three days. A breeding environment was altered to a 24-hour pattern, a light/dark cycle was maintained at 12-hour intervals, and antibiotic-free normal solid feed was used. In a control group, saline was injected. In a positive control group, Eutropin Injection (LG Bioscience Korea) was subcutaneously injected at a dose of 20 μg/kg once a day. The coumaric acid of this invention was administered to the oral cavity of all rats of a coumaric acid group, once daily.
After feeding and administering the coumaric acid to the rats for 10 days, autopsies were carried out to confirm the following content.
The measurement was carried out twice a week. The measured values were statistically analyzed to calculate mean±standard deviation.

Sprague-Dawley rats [2] = assay: Analysis of growth plate (heights of proliferative and hypertrophic zones); format: in vivo, rat; conditions: after 10-day administration; for height of the proliferative zone of the growth plate: average, control group 0.77 mm; for height of the hypertrophic zone of the growth plate: control group 1.10 mm
Procedure: In a control group, saline was injected. […] To assess the growth effect of coumaric acid, the growth plate of each rat was analyzed. In Experimental Example <1-1>, after the 10-day administration was completed, right and left tibias (shinbones) were extracted from the experimental group and the control groups according to this invention, all the muscles, fat and ligaments attached to bone tissue were removed, and then the resulting specimen was stored in 70% alcohol, demineralized, and then dehydrated. Afterward, the resulting specimen was washed with xylene, and then put into a paraffin block. Subsequently, the specimen was cut to a thickness of 4 μm, and then the heights of the proliferative zone and the hypertrophic zone in the growth plate were measured using a BX50 microscope (Olympus).

cartilage cells = assay: Proliferation of cartilage cells in proximal tibia (BrdU staining); format: in vivo, rat; conditions: rats, after 10-day administration, BrdU 30 mg/kg i.p., 2 hours before autopsy; control group 0.13%
Procedure: as §1
To confirm whether the effect of coumaric acid on bone growth is caused by the proliferation of cartilage cells, cartilage cells were observed. In Experimental Example <1-1>, after the 10-day administration was completed, rats of the experimental group and the control groups according to this invention were intraperitoneally administered with a dose of 30 mg/kg of 5-bromo-2′-deoxyuridine (BrdU) on the day of the experiment. Two hours later, autopsies were carried out to extract legs, and then the legs were stored in 4% PFA for 24 hours. Following embedding and sectioning, cartilage cells which were stained using a BrdU staining kit (Invitrogen, Carlsbad, Calif., USA) were observed.

growth hormone = assay: Growth hormone levels in blood (Growth Hormone Rat ELISA Kit); format: in vivo; conditions: rat serum, after 10-day administration; control group 3.97 ng/ml
Procedure: as §1
To confirm whether coumaric acid affects the secretion level of the growth hormone, a growth hormone level in the blood of each rat was measured. […] The measurement of the growth hormone levels were carried out using a Growth Hormone Rat ELISA Kit (Life Technologies, KRC5311).

Sprague-Dawley rats [3] = assay: Total tibial length by X-ray radiography; format: in vivo, rat; conditions: after 10-day administration, coumaric acid 100 mg/kg oral, growth hormone 20 μg/kg s.c.
Procedure: as §1
To assess the effect of coumaric acid on growth promotion, total tibial length of rats were measured. In Experimental Example <1-1>, after the 10-day administration was completed, right and left tibias (shinbones) were extracted from the control groups and the coumaric acid-fed experimental group according to this invention, all the muscles, fat and ligaments attached to bone tissue were removed, and then the resulting specimen was stored in 70% alcohol, followed by radiographic analysis using an X-ray imaging instrument (OM-FORTE-10121, DK Medical Systems). For the analysis, 55 kV, […] X-ray sources were used. The total tibial length was measured by X-ray radiography.

| Compound | IGF-1 protein level (IGF-1) | body weight vs control group [1] | height of the proliferative zone of the growth plate (Sprague-Dawley rats [2]) | height of the hypertrophic zone of the growth plate (Sprague-Dawley rats [2]) | ratio of BrdU-labeled cells with respect to total cells (cartilage cells) | growth hormone level in blood (growth hormone) | total tibial length vs control group (Sprague-Dawley rats [3]) |
| --- | --- | --- | --- | --- | --- | --- | --- |
| O=C(O)/C=C/c1ccc(O)cc1 [coumaric acid] | 1.23 mg/kg | almost no difference | 0.98 mm | 1.27 mm | 0.18% | 7.62 ng/mL |  |
| growth hormone: positive control: Eutropin Injection (LG Bioscience Korea), growth hormone, subcutaneously injected at 20 μg/kg once a day | 1.31 mg/kg |  | 1.13 mm | 1.44 mm | 0.18% | 11.89 ng/mL | greater than the control group |
